Source: patent publication US20250114369A1, “COMPOUNDS AND METHODS FOR TREATMENT OF VIRAL INFECTIONS” (Gilead Sciences, Inc., priority 2023, published 2025)
Converted amounts (≈) assume the structure as drawn.

Tests used:
[1] = tested on: Respiratory syncytial virus recombinant with luciferase (RSV-Luc5); assay: microbe, parasite or virus in culture; type: cell-based; details: human respiratory syncytial virus, NHBE, 72 h, read-out: RSV NHBE EC50 (nM)
[2] = tested on: SARS Coronavirus 2 recombinant with NanoLuc (SARS-CoV2-NLuc); assay: organism not typed; type: cell-based; details: 48 h
in vitro [3] = type: cell-based; details: human
Method: Cytotoxicity of the compounds was determined in uninfected cells using the cell viability reagent in a similar fashion as described before for other cell types (Cihlar et al., Antimicrob Agents Chemother. 2008, 52(2):655-65). HEp-2 (1.5×10^3 cells/well) and MT-4 (2×10^3 cells/well) cells were plated in 384-well plates and incubated with the appropriate medium containing 3-fold serially diluted compound ranging from 15 nM to 100,000 nM. Cells were cultured for 4-5 days at 37° C. Following the incubation, the cells were allowed to equilibrate to 25° C., and cell viability was determined by adding Cell-Titer Glo viability reagent. The mixture was incubated for 10 min, and the luminescence signal was quantified using an Envision plate reader. Untreated cell and cells treated at 2 μM puromycin (Sigma, St. Louis, MO) serve as […] cell viability control, respectively. The percent of cell viability was calculated for each tested compound concentration relative to the 0% and 100% controls and the CC50 value was determined by non-linear regression as a compound concentration reducing the cell viability by […].

in vitro [4] = type: in vitro ADME; details: human, s9, pH 7.4
Method: Duplicate aliquots of test compound or positive control substrate (GS-7340) were added to PMSF-free Intestinal S9 fractions diluted with 100 mM phosphate buffered saline, pH 7.4, to obtain a protein concentration of 1.0 mg/mL. The S9 metabolic reactions were initiated by the addition of the substrates to the S9 reaction mixture to a final concentration of 2 μM. At 0, 10, 20, 30, 60 and 120 min, 25 μL aliquots of the reaction mixture were transferred to plates containing 225 μl of IS/Q solution. After quenching, the plates were centrifuged at 3000×g for 30 minutes, and 150 μL aliquots of each supernatant were diluted with 150 μL water. Aliquots (10 μL) of the diluted supernatant were analyzed on a Thermo Q-Exactive mass spectrometer as described below. Quantification of test compounds and controls was performed by analyte/internal standard peak area ratio (PAR) values measured on a Thermo Q-Exactive mass spectrometer coupled to a Dionex UltiMate 3000 HPLC with a Leap Technologies HTC PAL autosampler. The column used was a Thermo Hypersil GOLD (1.9 μm particle size, 2.1×50 mm). Mobile phase A consisted of […] formic acid in water. Mobile phase B consisted of 0.1% (v/v) formic acid in acetonitrile. Elution of analytes was achieved by a series of linear gradients of acetonitrile in water containing 0.1% (v/v) formic acid. The mass spectrometer was calibrated on a weekly basis and mass tolerance of 5 ppm was used.

[5] = type: in vitro ADME; details: 2 μM
Method: Duplicate aliquots of plasma were warmed to 37° C. and the metabolic reactions initiated by the addition of test compound (6 μL of 0.1 mM DMSO stock) or plasma stability standard (GS-7340) to obtain a final substrate concentration of 2 μM. At 0.05, 0.5, 1, 2, 3 and 4 hr, 25 μL aliquots of the reaction mixture were transferred to plates containing 225 μl of IS/Q quenching solution. After quenching, the plates were centrifuged at 3000×g for 30 minutes, and 150 μL supernatant was diluted with 150 μL water. Aliquots (10 μL) of the diluted supernatant were analyzed on a Thermo Q-Exactive mass spectrometer as described below. Quantification of test compounds and controls was performed by analyte/internal standard peak area ratio (PAR) values measured on a Thermo Q-Exactive mass spectrometer coupled to a Dionex UltiMate 3000 HPLC with a Leap Technologies HTC PAL autosampler. The column used was a Thermo Hypersil GOLD (1.9 μm particle size, 2.1×50 mm). Mobile phase A consisted of […] formic acid in water. Mobile phase B consisted of 0.1% (v/v) formic acid in acetonitrile. Elution of analytes was achieved by a series of linear gradients of acetonitrile in water containing 0.1% (v/v) formic acid. The mass spectrometer was calibrated on a weekly basis and mass tolerance of 5 ppm was used.

[6] = tested on: Caco-2 cells (clone C2BBel); assay: CACO-2 permeability; type: in vitro ADME; details: donor pH 6.5, receiver pH 7.4; for DM Caco2 A to B: forward (A to B); for DM Caco2 B to A: reverse (B to A)
Method: Pre-plated Caco-2 cells (clone C2BBel) were obtained from Sigma-Aldrich, Inc. (Atlanta, GA). Cell monolayers were grown to confluence on collagen-coated, microporous, polycarbonate membranes in 24-well transwell plates for 21 days. The permeability assay buffer in donor wells was Hanks' balanced salt solution (HBSS) containing 10 mM HEPES and 15 mM glucose at a pH of 6.5 containing 200 μM BNPP. The receiver wells used HBSS buffer containing 10 mM HEPES and 15 mM glucose at a pH of 7.4 and supplemented with 1% BSA. After an initial equilibration with transport buffer, TEER values were read to test membrane integrity. The experiment was started by the addition of buffers containing test compounds, 200 μl and 1000 μl in the apical and basolateral chamber, respectively. At 0- and 2-hour post dose, 10 μL was sampled from donor compartment and was immediately diluted in 190 μL of 20% methanol. At 1 and 2 hours post dose, 100 μl of solution was taken from the receiver compartments and was immediately diluted in 100 μl of 20% methanol. Removed buffer was replaced with fresh buffer and a correction was applied to all calculations for the removed material. Each compound was tested in 2 separate replicate wells for each condition. All samples were then extracted with 400 μl 100% acetonitrile with internal standard to precipitate protein. Cells were dosed on the apical or basolateral side to determine forward (A to B) and reverse (B to A) permeability. To test for non-specific binding and compound instability, the total amount of drug was quantitated at the end of the experiment and compared to the material present in the original dosing solution as a percent recovery. Formation of the parent compound (GS-441524; Reference Compound A) was monitored in assay wells dosed with the prodrug. Samples were analyzed by LC-MS/MS.

physchem = type: physicochemical; details: pH 7, aqueous buffer, thermodynamic from solid
Method: The aqueous solubility of compounds over a time of 24 hours was assessed. Solubility was determined at ambient temperature in a 50 mM phosphate buffered pH7 solution with 150 mM NaCl (to achieve isotonicity). Solids were added to the buffered solution in 1.5-mL Eppendorf tubes, vortexed for 1 minute, then agitated for 24 hours in an Eppendorf ThermoMixer C. To determine concentration in solution, the suspensions were centrifuged for 15 min at 15,000 rpm. Supernatants were diluted to a volume of 1 mL with 30:70 v/v acetonitrile:water. All diluted supernatants were analyzed by UPLC using a Waters Acquity UPLC with a PDA UV detector.

in vitro [7] = type: in vitro ADME; details: human, s9, pH 7.4; remark: listed apart in the source
Method: Duplicate aliquots of test compound or positive control substrate (GS-7340) were added to S9 stock diluted with 100 mM potassium phosphate buffer, pH 7.4, to obtain a protein concentration of 2.4 mg/mL. The S9 metabolic reactions were initiated by the addition of the substrates to the S9 reaction mixture to a final concentration of 2 μM. At 2, 12, 25, 45, 65 and 90 min, 25 μL aliquots of the reaction mixture were transferred to plates containing 225 μl of IS/Q solution. After quenching, the plates were centrifuged at 3000×g for 30 minutes, and 150 μL aliquots of each supernatant were diluted with 150 μL water. Aliquots (10 μL) of the diluted supernatant were analyzed on a Thermo Q-Exactive mass spectrometer as described below. Quantification of test compounds and controls was performed by analyte/internal standard peak area ratio (PAR) values measured on a Thermo Q-Exactive mass spectrometer coupled to a Dionex UltiMate 3000 HPLC with a Leap Technologies HTC PAL autosampler. The column used was a Thermo Hypersil GOLD (1.9 μm particle size, 2.1×50 mm). Mobile phase A consisted of […] formic acid in water. Mobile phase B consisted of 0.1% (v/v) formic acid in acetonitrile. Elution of analytes was achieved by a series of linear gradients of acetonitrile in water containing 0.1% (v/v) formic acid. The mass spectrometer was calibrated on a weekly basis and mass tolerance of 5 ppm was used.
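Wherever CC50 is given: uninfected MT-4 cells over 4-5 days by CellTiter-Glo.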

Compound	EC50 [1] [nM]	EC50 [2] [µM]	CC50 (in vitro [3]) [µM]	half-life at 2 μM (in vitro [4]) [h]	STA Human Plasma 37 [5]	DM Caco2 A to B [6]	DM Caco2 B to A [6]	solubility thermodynamic at 24 h (physchem) [µg/mL]	half-life at 2 μM (in vitro [7]) [h]
COC(=O)c1cn(C(=O)OC[C@H]2O[C@@](C#N)(c3ccc4c(N)ncnn34)[C@H](O)[C@@H]2O)c2ccccc12 [Compound 1, O1-[[(2R,3S,4R,5R)-5-(4-aminopyrrolo[2,1-f][1,2,4]triazin-7-yl)-5-cyano-3,4-dihydroxy-tetrahydrofuran-2-yl]methyl]O3-methyl indole-1,3-dicarboxylate]	5590	4.73	> 50	2.05	645.34	0.69	12.34	100 (≈ 203 µM)	
N#C[C@@]1(c2ccc3c(N)ncnn23)O[C@H](COC(=O)n2cc(C(=O)OC3CCOCC3)c3ccccc32)[C@@H](O)[C@H]1O [Compound 2, O1-[[(2R,3S,4R,5R)-5-(4-aminopyrrolo[2,1-f][1,2,4]triazin-7-yl)-5-cyano-3,4-dihydroxy-tetrahydrofuran-2-yl]methyl]O3-tetrahydropyran-4-yl indole-1,3-dicarboxylate]	14100	5.52	> 50	7.93	1055.4	0.33	13.49	140 (≈ 249 µM)	
CC(C)NC(=O)OC[C@H]1O[C@@](C#N)(c2ccc3c(N)ncnn23)[C@H](O)[C@@H]1O [Compound 8, [(2R,3S,4R,5R)-5-(4-aminopyrrolo[2,1-f][1,2,4]triazin-7-yl)-5-cyano-3,4-dihydroxy-tetrahydrofuran-2-yl]methyl N-isopropylcarbamate]	> 50000	31.9	> 50	13.1		0.11	0.79	> 13000	≥ 9.87
N#C[C@@]1(c2ccc3c(N)ncnn23)O[C@H](COC(=O)N2CCCCC2)[C@@H](O)[C@H]1O [Compound 13, [(2R,3S,4R,5R)-5-(4-aminopyrrolo[2,1-f][1,2,4]triazin-7-yl)-5-cyano-3,4-dihydroxy-tetrahydrofuran-2-yl]methyl piperidine-1-carboxylate]	> 50000	> 50	> 50	≥ 13.2	1584	0.3	6.39	4480 (≈ 11100 µM)	≥ 9.87
CC(=O)O[C@H]1[C@@H](OC(C)=O)[C@](C#N)(c2ccc3c(N)ncnn23)O[C@@H]1COC(=O)N1CCCCCCC1 [Compound 19, [(2R,3R,4R,5R)-3,4-diacetoxy-5-(4-aminopyrrolo[2,1-f][1,2,4]triazin-7-yl)-5-cyano-tetrahydrofuran-2-yl]methyl azocane-1-carboxylate]	18000	31.5	> 50	0.0127	14.703	6.33	13.32	110 (≈ 214 µM)	≤ 0.0333
CCOC(=O)c1cccn1C(=O)OC[C@H]1O[C@@](C#N)(c2ccc3c(N)ncnn23)[C@H](OC(C)=O)[C@@H]1OC(C)=O [Compound 20, O1-[[(2R,3R,4R,5R)-3,4-diacetoxy-5-(4-aminopyrrolo[2,1-f][1,2,4]triazin-7-yl)-5-cyano-tetrahydrofuran-2-yl]methyl]O2-ethyl pyrrole-1,2-dicarboxylate]	731	4.28	> 50	0.0104	67.544	3.16	9.63	10 (≈ 18.5 µM)	≤ 0.0333
CC(=O)O[C@H]1[C@@H](OC(C)=O)[C@](C#N)(c2ccc3c(N)ncnn23)O[C@@H]1COC(=O)N1CCCCC1 [Compound 21, [(2R,3R,4R,5R)-3,4-diacetoxy-5-(4-aminopyrrolo[2,1-f][1,2,4]triazin-7-yl)-5-cyano-tetrahydrofuran-2-yl]methyl piperidine-1-carboxylate]	> 50000	> 50	> 50	0.0112	11.334	3.99	19.68	370 (≈ 761 µM)	≤ 0.0333
